Reference: patent US20080038809A1, “ISOLATED LECTIN POLYPEPTIDES CONSISTING OF TRUNCATED […] UDP-GalNAc:POLYPEPTIDE N- ACETYLGALACTOSAMINYLTRANSFERASES” (GLYCOZYM APS, priority 2002, published 2008)

Legend:
HT29 MTX cells = details: cited from earlier work
β3Gal-T4 = β3Gal-T4 (Homo sapiens, UniProt O96024); details: cited from earlier work
[1] = biological target: human GalNAc-T4 (UDP-GalNAc:polypeptide N-acetylgalactosaminyltransferase T4), secreted soluble enzyme (sT4), wild type (Homo sapiens, UniProt Q8N4A0); details: binding to GalNAc-MUC1 glycopeptide
Sequence of human GalNAc-T4 (UDP-GalNAc:polypeptide N-acetylgalactosaminyltransferase T4), secreted soluble enzyme (sT4), wild type (Q8N4A0 36-578 limits assumed): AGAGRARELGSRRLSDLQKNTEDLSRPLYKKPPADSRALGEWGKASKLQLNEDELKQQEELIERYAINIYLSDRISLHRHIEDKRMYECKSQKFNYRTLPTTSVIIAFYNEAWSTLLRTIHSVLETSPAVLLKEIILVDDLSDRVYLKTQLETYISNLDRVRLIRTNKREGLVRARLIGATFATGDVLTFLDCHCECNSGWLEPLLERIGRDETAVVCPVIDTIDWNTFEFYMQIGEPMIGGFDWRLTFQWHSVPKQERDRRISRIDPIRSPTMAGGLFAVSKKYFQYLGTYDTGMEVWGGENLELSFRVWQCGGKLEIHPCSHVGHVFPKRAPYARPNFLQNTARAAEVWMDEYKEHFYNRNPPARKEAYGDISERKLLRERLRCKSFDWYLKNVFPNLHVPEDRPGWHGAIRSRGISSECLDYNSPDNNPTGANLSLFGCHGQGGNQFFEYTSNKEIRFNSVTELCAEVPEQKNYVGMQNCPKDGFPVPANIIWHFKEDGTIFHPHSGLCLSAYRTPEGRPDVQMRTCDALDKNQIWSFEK
Procedure: The pH of 1 ml purified protein (0.3 mg/ml) in PBS was adjusted to pH 9 with 1 M NaOH and 40 μl N-hydroxy-succinimidobiotin (Sigma) dissolved in DMF (10 mg/ml) was added. The solution was mixed end-over-end for 2 hours at room temperature, and dialyzed three times against PBS and an equal volume of glycerol was added. The biotinylated proteins were stored at −20° C. in 50% glycerol until use.
Glycopeptides were purified by C-18 reverse phase HPLC. Peptides were custom synthesized by Neosystems (Strasbourg). Biotinylated Helix Pomatia lectin (HPA) was from KemEnTec (Denmark). Anti-MUC1 HMFG2 monoclonal antibody was a generous gift from Joyce Taylor-Papadimitriou.
Direct binding ELISA assay was developed as follows: Polystyrene microtiter plates (Maxisorb, Nunc, Denmark) were coated with peptides or enzymatically glycosylated glycopeptides in PBS overnight at 4° C. Plates were washed and blocked with 0.1% Tween20 and 0.2% BSA in PBS for 1 h at room temperature, followed by incubation with biotinylated proteins in PBS with 0.05% Tween20 for 2 h at room temperature. After four washes with PBS, plates were incubated with 1:2,000 dilution streptavidin-HRP (Sigma) in PBS for 30 min at room temperature and washed four times with PBS. […]

Sequence of β3Gal-T4 (O96024 whole entry): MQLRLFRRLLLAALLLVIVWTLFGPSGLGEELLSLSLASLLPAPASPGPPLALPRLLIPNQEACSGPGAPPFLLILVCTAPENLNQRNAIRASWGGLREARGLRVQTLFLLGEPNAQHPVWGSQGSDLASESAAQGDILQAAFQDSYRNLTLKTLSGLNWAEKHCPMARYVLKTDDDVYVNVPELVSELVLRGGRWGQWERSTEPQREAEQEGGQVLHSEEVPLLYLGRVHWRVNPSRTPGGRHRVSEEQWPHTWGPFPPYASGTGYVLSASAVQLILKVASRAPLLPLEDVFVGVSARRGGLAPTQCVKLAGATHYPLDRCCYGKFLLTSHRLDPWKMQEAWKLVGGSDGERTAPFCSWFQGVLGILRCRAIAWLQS

For `CC(=O)N[C@H]1[C@@H](OCc2ccccc2)O[C@H](CO)[C@H](O)[C@@H]1O` [GalNAcα-benzyl, benzyl-N-acetyl-alpha-D-galactosaminide], the “inhibition of mucin secretion” value (HT29 MTX cells) is given as “Inhibition of mucin secretion”.
For `CC(=O)N[C@H]1[C@H](OCc2ccccc2)O[C@H](CO)[C@H](O)[C@@H]1O` [GalNAcβ-benzyl], the “activity of β3Gal-T4 with the compound as acceptor” value (β3Gal-T4) is given as “no or very poor activity”.
For `CC(=O)N[C@H]1[C@@H](OCc2ccccc2)O[C@H](CO)[C@@H](O)[C@@H]1O` [GlcNAcα-benzyl], the “inhibition of GalNAc-T4 lectin binding (in words)” value [1] was “no inhibition”.
